Reference: patent US7408359B2, “Current measuring device having artificial lipid bilayer membrane” (Japan Science and Technology Agency, priority 2003, dated 2008)

Experiments:
[1] = target: T1, plain muscle Ca2+ dependency K+ channel (Bos taurus, UniProt Q28204); experiment: Single channel current measurement of plain muscle Ca2+ dependency K+ channel in artificial lipid bilayer membrane; format: biochemical, bovine; conditions: 100 mM KCl, 10 mM Hepes (pH 7.4)
T1 construct: inserting a K^+ channel on the vesicle membrane into the artificial lipid bilayer membrane 2; from tissue; host or cells: bovine tracheal smooth (plain) muscle membrane vesicles
T1 sequence (Q28204 whole entry): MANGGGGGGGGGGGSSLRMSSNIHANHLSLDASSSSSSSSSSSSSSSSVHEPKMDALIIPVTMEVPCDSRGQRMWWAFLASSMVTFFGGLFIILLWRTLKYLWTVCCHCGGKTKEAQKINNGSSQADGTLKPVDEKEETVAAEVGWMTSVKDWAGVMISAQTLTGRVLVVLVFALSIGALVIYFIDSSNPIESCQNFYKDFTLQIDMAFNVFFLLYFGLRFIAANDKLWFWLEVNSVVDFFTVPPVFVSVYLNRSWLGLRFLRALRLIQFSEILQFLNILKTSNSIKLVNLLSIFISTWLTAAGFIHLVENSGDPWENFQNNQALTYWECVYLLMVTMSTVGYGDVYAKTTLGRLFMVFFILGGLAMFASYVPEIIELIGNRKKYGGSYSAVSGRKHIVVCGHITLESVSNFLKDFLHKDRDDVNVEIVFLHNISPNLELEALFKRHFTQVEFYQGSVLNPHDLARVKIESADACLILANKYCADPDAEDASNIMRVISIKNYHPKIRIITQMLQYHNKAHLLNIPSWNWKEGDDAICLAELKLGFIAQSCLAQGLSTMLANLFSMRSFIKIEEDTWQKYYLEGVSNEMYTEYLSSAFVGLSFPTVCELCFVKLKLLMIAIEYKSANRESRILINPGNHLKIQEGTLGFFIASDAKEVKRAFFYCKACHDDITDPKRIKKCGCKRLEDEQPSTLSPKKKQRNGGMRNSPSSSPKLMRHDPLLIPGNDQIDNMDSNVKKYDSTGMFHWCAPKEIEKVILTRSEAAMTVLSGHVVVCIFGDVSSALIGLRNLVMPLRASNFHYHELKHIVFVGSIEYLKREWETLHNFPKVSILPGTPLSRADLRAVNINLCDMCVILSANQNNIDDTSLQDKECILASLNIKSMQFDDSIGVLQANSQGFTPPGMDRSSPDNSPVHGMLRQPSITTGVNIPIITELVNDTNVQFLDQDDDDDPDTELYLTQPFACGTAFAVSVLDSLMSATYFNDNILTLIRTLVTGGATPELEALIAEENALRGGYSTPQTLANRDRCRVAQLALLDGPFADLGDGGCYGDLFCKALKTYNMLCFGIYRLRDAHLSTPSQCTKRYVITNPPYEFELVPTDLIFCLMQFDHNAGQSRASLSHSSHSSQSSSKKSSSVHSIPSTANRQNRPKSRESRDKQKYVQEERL
T1 sequence (Q28067 whole entry partner): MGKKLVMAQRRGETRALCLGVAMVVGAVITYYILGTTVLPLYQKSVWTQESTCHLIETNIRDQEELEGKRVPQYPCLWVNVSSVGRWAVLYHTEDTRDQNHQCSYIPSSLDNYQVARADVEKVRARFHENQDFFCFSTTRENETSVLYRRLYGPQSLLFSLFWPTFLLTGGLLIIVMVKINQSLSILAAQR
Excerpt: (§1) In the present Example, a current measuring device according to the present invention (FIG. 5) was used. […] In the bottom 9, a small hole 4 whose diameter was 0.15 mm was provided. A square glass plate whose thickness was 0.17 mm and each side was 18 mm was used as the bottom plate 6. Further, an agarose gel layer whose thickness was 100 nm was formed on the bottom plate 6 as the support layer 5 so as to be positioned in a face contacting the upper solution chamber 3. […] In measuring a current, a patch-clamp amplifier (CEZ-2400 produced by Nihon Kohden Corporation) was used, and the measured current was recorded on a DAT tape by using a DAT recorder. […]
Thereafter, lipid solution obtained by dissolving phosphatidylcholine (product of Sigma) in decane so that its concentration was 20 mg/mL was applied to the small hole 4 provided in the bottom 9 of the upper solution chamber 3. […] By using the thus produced current measuring device, a current was measured with time.
Subsequently, only the CaCl2 concentration of the aqueous solution with which the upper solution chamber 3 and the lower solution chamber 8 were filled was changed into 1 mM. Under this condition, a current measuring device was produced in the same manner, and a current was measured.

[2] = target: T2, ryanodine receptor channel (Ca- channel) (Sus scrofa, UniProt A0A5G2R1W3); experiment: Single channel current measurement and fluorescence observation of ryanodine receptor channel in artificial lipid bilayer membrane; format: biochemical, swine; conditions: 1 to 10 nM Cy5-labeled ryanodine added from the upside of the membrane; 500 mM Na-methanesulfonic acid, 40 mM Hepes (pH 7.4), 0.01-0.1 μM Ca2+
T2 construct: a cell membrane vesicle sampled from a swine cardiac muscle; from tissue; host or cells: swine cardiac muscle membrane vesicles
Excerpt: as §1
Thereafter, solution obtained by dissolving phosphatidylcholine in decane so that its concentration was 20 mg/ml was applied to the small hole 4 provided in the bottom 9 of the upper solution chamber 3. […] At this time, the ryanodine receptor channel on the vesicle membrane was fluorescence-labeled with fluorescent dye Cy5 (product of Amensham Pharmacia) in advance, and then the cell membrane vesicle was fused with the artificial lipid bilayer membrane 2. The fluorescence labeling of the ryanodine receptor channel was carried out as follows: a corresponding specific monoclonal antibody was labeled with Cy5, and the thus labeled antibody was coupled with the ryanodine receptor channel. […]

Row | Compound | state of the ion channel (current trace) ([1]; CaCl2 1 mM) | state of the ion channel (current trace) ([1]; CaCl2 10^-9 M) | channel activity (current trace after addition) [2]
1 | [Ca+2].[Cl-].[Cl-] [CaCl2] | more likely to open | closed | 
2 | ryanodine |  |  | activation of the ryanodine receptor channel occurs
